According to patent US4874773A, “3-Aminocarbonyl-1,4-dihydropyridine-5-carboxylic acid compounds, and pharmaceutical composition containing the same” (priority 1985, dated 1989):
Read-outs that look alike come from different tables or passages of the source.

Legend:
[1] = test system: Spontaneously hypertensive male rats; test: Experiment 1-1 Hypotensive activity (oral, conscious spontaneously hypertensive rats); format: in vivo, rat; settings: 10 mg/kg oral; for Maximum hypotension: mean blood pressure
Procedure: Spontaneously hypertensive male rats (13-15 week age, one group: 3 rats) were used. […] The rats were fixed in a Howlman cage without fasting, and the femoral arterial pressure was measured by a direct method without anesthesia with a cannula which was previously inserted into the femoral artery of the animal, via a pressure transducer (MPU-0.5, manufactured by Nippon Koden K.K.). The test compounds were orally administered in the form of a suspension in 0.5% methyl cellulose solution in a dose of 10 mg/kg (in some compounds, 3 mg/kg). In the control group, only 0.5% methyl cellulose solution was administered likewise. The blood pressure was measured for 5 hours after the administration of test compounds.

isolated heart [2] = test: Experiment 2-1 Activity on isolated heart; set-up: species or system Japanese white rabbit; settings: Oryctolagus cuniculus, 3 μg/heart; for activation at 3 µg/heart: read-out: Increase of coronary perfusion; for inhibition at 3 µg/heart, 3 µg/heart: read-out: Inhibitory rate of systole; for inhibition at 3 µg/heart: read-out: Reducing rate of heart pulse
Procedure: Japanese white rabbit (weighing 2.2-2.5 kg) was anesthetized by introvenous injection of nembutal (20 mg/kg) and then sacrificed by bleeding from common carotid artery. […] After stabilizing the heart preparation for 90 minutes, the test compound was administered. There were measured the perfusion volume with a drop-counting meter (ET-600G type, manufactured by Nippon Koden K.K.) and the heart pulse and the contractility via a force-displacement transducer (FD pick up, SB-IT type, manufactured by Nippon Koden K.K.) (for measuring heart pulse, an instant pulse meter (AT-601G type, minufactured by Nippon Koden K.K.) being further used).

isolated aorta = test: Experiment 3 Relaxing activity on the isolated aorta (30 mM KCl contracted); set-up: species or system Japanese white rabbit; settings: for EC50: Oryctolagus cuniculus, 30 mM KCl contraction, maximum relaxation by papaverine = 100%, read-out: EC50 (concentration for 50% relaxation); for relaxing / vasodilating activity on isolated aorta (in words): Table 8, comparison with nifedipine and nicardipine hydrochloride, etc. where stated
Procedure: Japanese white rabbit (weighing 2.3-2.7 kg) was sacrificed by bleeding from common carotid artery. Immediately, the aorta was isolated and cut into a sprial strip. The strip preparation was vertically suspended under a resting tension of 2.0 g in a tissue bath containing 20 ml of modified Ringer solution while bubbling with a mixture of 95% O2 +5% CO2 by connecting one end of the strip to a lever of the above-mentioned FD pick up. The aortic strip was contracted with 30 mM KCl. When the contraction became constant, the test compound was accumulatively administered, and the relaxing effect was measured. After the final treatment, 10^-4T M papaverine was administered and the maximum relaxation obtained thereby was taken as 100%. In comparison with the maximum relaxation obtained by papaverine, the rate of relaxation by the test compounds was evaluated, and the concentration of the test compounds for obtaining 50% relaxation (EC50) was calculated.
The test compound was dissolved in ethanol, and the solution was diluted in 100 to 1×10^4 folds with a nutrient solution, and the diluted solution was administered.

isolated heart [3] = test: Experiment 2-2 Activity onto the isolated heart (with duration); set-up: species or system Japanese white rabbit; settings: for Coronary perfusion Duration: time until perfusion volume returned to initial level; for activation at 3 µg/heart / inhibition at 3 µg/heart / activation at 1 µg/heart / inhibition at 1 µg/heart: Oryctolagus cuniculus; for activation at 3 µg/heart / activation at 1 µg/heart: read-out: Coronary perfusion Increase
Procedure: Japanese white rabbit (weighing 2.2-2.5 kg) was anesthetized by introvenous injection of nembutal (20 mg/kg) and then sacrificed by bleeding from common carotid artery. […] There were measured the perfusion volume with a drop-counting meter (ET-600G type, manufactured by Nippon Koden K.K.) and the heart pulse and the contractility via a force-displacement transducer (FD pick up, SB-IT type, manufactured by Nippon Koden K.K.) (for measuring heart pulse, an instant pulse meter (AT-601G type, minufactured by Nippon Koden K.K.) being further used).
The test compounds were dissolved in ethanol, and the solution was diluted in 100-fold with purified water, and the diluted solution was administered in an amount of 0.1 ml/heart (i.e. 3 μg/heart).
The activity was measured in the same manner as described in Experiment 2-1 except that in some test compounds, the dose was in 1 μg/heart. Besides, the duration of the activity was evaluated by counting the time until the coronary perfusion volume became to the initial level before the administration of the test compound.

[4] = 3 μg/heart, read-out: Inhibitory rate of systole
[5] = 3 μg/heart, read-out: Reducing rate of heart pulse
[6] = 1 μg/heart, read-out: Inhibitory rate of systole
[7] = 1 μg/heart, read-out: Reducing rate of heart pulse

Row | Compound | EC50 (isolated aorta) | Coronary perfusion Duration (isolated heart [3]; 3 μg/heart) | activation at 3 µg/heart (isolated heart [3]; 3 μg/heart) | inhibition at 3 µg/heart (isolated heart [3]; [4]) | inhibition at 3 µg/heart (isolated heart [3]; [5]) | also measured
1 | COC(=O)C1=C(C)NC(C)=C(C(N)=O)C1c1ccccc1[N+](=O)[O-] (centres unmarked) [C, reference compound] | > 1000 nM |  |  |  |  | Recovering time [1]: 2.0 h; Time for recovering 1/2 of max. hypotension [1]: 1.5 h; Time until reaching to max. hypotension [1]: 15 min; Maximum hypotension [1]: 20 mmHg; activation at 3 µg/heart (isolated heart [2]): 16%; inhibition at 3 µg/heart, 3 µg/heart (isolated heart [2]): 17%; inhibition at 3 µg/heart (isolated heart [2]): 7%
2 | CCNC(=O)C1=C(C)NC(C)=C(C(=O)OC)C1c1ccccc1[N+](=O)[O-] (centres unmarked) [D, reference compound] |  |  |  |  |  | activation at 3 µg/heart (isolated heart [2]): 20%; inhibition at 3 µg/heart, 3 µg/heart (isolated heart [2]): 15%; inhibition at 3 µg/heart (isolated heart [2]): 5%
3 | CCOC(=O)C1=C(C)NC(C)=C(C(=O)N(C)C)C1c1cccc([N+](=O)[O-])c1 (centres unmarked) [E, reference compound] | > 1000 nM |  |  |  |  | Recovering time [1]: 1.0 h; Time for recovering 1/2 of max. hypotension [1]: 0.5 h; Time until reaching to max. hypotension [1]: 15 min; Maximum hypotension [1]: 5 mmHg; activation at 3 µg/heart (isolated heart [2]): 0%; inhibition at 3 µg/heart, 3 µg/heart (isolated heart [2]): 0%; inhibition at 3 µg/heart (isolated heart [2]): 1%
4 | CCOC(=O)C1=C(C)NC(C)=C(C(N)=O)C1c1ccccc1[N+](=O)[O-] (centres unmarked) [Example 9] | 670 nM |  |  |  |  | 
5 | CCCOC(=O)C1=C(C)NC(C)=C(C(N)=O)C1c1ccccc1[N+](=O)[O-] (centres unmarked) [Example 10] | 400 nM |  |  |  |  | 
6 | CC1=C(C(N)=O)C(c2ccccc2[N+](=O)[O-])C(C(=O)OC(C)C)=C(C)N1 (centres unmarked) [Example 11] | 320 nM |  |  |  |  | 
7 | CCCCCOC(=O)C1=C(C)NC(C)=C(C(N)=O)C1c1ccccc1[N+](=O)[O-] (centres unmarked) [Example 16] | 610 nM |  |  |  |  | 
8 | CC1=C(C(N)=O)C(c2ccccc2[N+](=O)[O-])C(C(=O)OC(C)C(C)C)=C(C)N1 (centres unmarked) [Example 18] | 710 nM |  |  |  |  | 
9 | CCNC(=O)C1=C(C)NC(C)=C(C(=O)OCCC(C)C)C1c1ccccc1[N+](=O)[O-] (centres unmarked) [Example 33] | 31 nM |  |  |  |  | relaxing / vasodilating activity on isolated aorta (in words) (isolated aorta): the same or more potent activity
10 | CCCCCOC(=O)C1=C(C)NC(C)=C(C(=O)NCCC)C1c1ccccc1[N+](=O)[O-] (centres unmarked) [Example 39] | 40 nM |  |  |  |  | relaxing / vasodilating activity on isolated aorta (in words) (isolated aorta): the same or more potent activity
11 | CCCNC(=O)C1=C(C)NC(C)=C(C(=O)OCCC(C)C)C1c1ccccc1[N+](=O)[O-] (centres unmarked) [Example 40] |  |  |  |  |  | activation at 3 µg/heart (isolated heart [2]): 25%; inhibition at 3 µg/heart, 3 µg/heart (isolated heart [2]): 14%; inhibition at 3 µg/heart (isolated heart [2]): 1%
12 | CCCCCCOC(=O)C1=C(C)NC(C)=C(C(=O)NCCC)C1c1ccccc1[N+](=O)[O-] (centres unmarked) [Example 41] | 130 nM |  |  |  |  | 
13 | CCCCCCCOC(=O)C1=C(C)NC(C)=C(C(=O)NCCC)C1c1ccccc1[N+](=O)[O-] (centres unmarked) [Example 42] | 380 nM |  |  |  |  | 
14 | CCC(CC)OC(=O)C1=C(C)NC(C)=C(C(=O)NC(C)C)C1c1ccccc1[N+](=O)[O-] (centres unmarked) [Example 50] | 700 nM |  |  |  |  | 
15 | CCCOC(=O)C1=C(C)NC(C)=C(C(=O)NC(C)C)C1c1cccc([N+](=O)[O-])c1 (centres unmarked) [Example 62] | 150 nM |  |  |  |  | activation at 3 µg/heart (isolated heart [2]): 20%; inhibition at 3 µg/heart, 3 µg/heart (isolated heart [2]): 2%; inhibition at 3 µg/heart (isolated heart [2]): 6%
16 | CC1=C(C(=O)NC(C)C)C(c2cccc([N+](=O)[O-])c2)C(C(=O)OC(C)C)=C(C)N1 (centres unmarked) [Example 63] |  |  |  |  |  | Recovering time [1]: 1.5 h; Time for recovering 1/2 of max. hypotension [1]: 1.0 h; Time until reaching to max. hypotension [1]: 15 min; Maximum hypotension [1]: 7 mmHg

Row | Compound | EC50 (isolated aorta) | Coronary perfusion Duration (isolated heart [3]; 3 μg/heart) | activation at 3 µg/heart (isolated heart [3]; 3 μg/heart) | inhibition at 3 µg/heart (isolated heart [3]; [4]) | inhibition at 3 µg/heart (isolated heart [3]; [5]) | also measured
17 | CCCCCOC(=O)C1=C(C)NC(C)=C(C(=O)NC(C)C)C1c1cccc([N+](=O)[O-])c1 (centres unmarked) [Example 66] | 70 nM |  |  |  |  | activation at 3 µg/heart (isolated heart [2]): 16%; inhibition at 3 µg/heart, 3 µg/heart (isolated heart [2]): 15%; inhibition at 3 µg/heart (isolated heart [2]): 13%; relaxing / vasodilating activity on isolated aorta (in words) (isolated aorta): the same or more potent activity
18 | CCCCNC(=O)C1=C(C)NC(C)=C(C(=O)OCCCC)C1c1cccc([N+](=O)[O-])c1 (centres unmarked) [Example 69] | 570 nM |  |  |  |  | 
19 | COC(=O)C1=C(C)NC(C)=C(C(=O)NC2CC2)C1c1ccccc1[N+](=O)[O-] (centres unmarked) [Example 80, methyl 2,6-dimethyl-3-cyclopropylaminocarbonyl-4-(o-nitrophenyl)-1,4-dihydropyridine-5-carboxylate] |  | < 10 min | 25% | 15% | 5% | 
20 | CCCCCCCOC(=O)C1=C(C)NC(C)=C(C(=O)NC2CC2)C1c1ccccc1[N+](=O)[O-] (centres unmarked) [Example 81, n-heptyl 2,6-dimethyl-3-cyclopropylaminocarbonyl-4-(o-nitrophenyl)-1,4-dihydropyridine-5-carboxylate] |  | 10 to 15 min | 15% | 15% | 0% | 
21 | COC(=O)C1=C(C)NC(C)=C(C(=O)NC2CCCC2)C1c1ccccc1[N+](=O)[O-] (centres unmarked) [Example 84, methyl 2,6-dimethyl-3-cyclopentylaminocarbonyl-4-(o-nitrophenyl)-1,4-dihydropyridine-5-carboxylate] |  |  |  |  |  | Coronary perfusion Duration (isolated heart [3]; 1 μg/heart): 20 to 30 min; activation at 1 µg/heart (isolated heart [3]; 1 μg/heart): 30%; inhibition at 1 µg/heart (isolated heart [3]; [6]): 15%; inhibition at 1 µg/heart (isolated heart [3]; [7]): 20%
22 | CCCCCCCCOC(=O)C1=C(C)NC(C)=C(C(=O)NC2CCCC2)C1c1ccccc1[N+](=O)[O-] (centres unmarked) [Example 86, n-octyl 2,6-dimethyl-3-cyclopentylaminocarbonyl-4-(o-nitrophenyl)-1,4-dihydropyridine-5-carboxylate] |  |  |  |  |  | Coronary perfusion Duration (isolated heart [3]; 1 μg/heart): 60 min; activation at 1 µg/heart (isolated heart [3]; 1 μg/heart): 50%; inhibition at 1 µg/heart (isolated heart [3]; [6]): 15%; inhibition at 1 µg/heart (isolated heart [3]; [7]): 20%
23 | CCCCCCCCCOC(=O)C1=C(C)NC(C)=C(C(=O)NC2CCCC2)C1c1ccccc1[N+](=O)[O-] (centres unmarked) [Example 87, n-nonyl 2,6-dimethyl-3-cyclopentylaminocarbonyl-4-(o-nitrophenyl)-1,4-dihydropyridine-5-carboxylate] |  |  |  |  |  | Coronary perfusion Duration (isolated heart [3]; 1 μg/heart): 60 min; activation at 1 µg/heart (isolated heart [3]; 1 μg/heart): 40%; inhibition at 1 µg/heart (isolated heart [3]; [6]): 15%; inhibition at 1 µg/heart (isolated heart [3]; [7]): 5%
24 | CCOC(=O)C1=C(C)NC(C)=C(C(=O)NC2CC2)C1c1ccccc1[N+](=O)[O-] (centres unmarked) [Example 88] |  | < 10 min | 35% | 30% | 30% | 
25 | CCCOC(=O)C1=C(C)NC(C)=C(C(=O)NC2CC2)C1c1ccccc1[N+](=O)[O-] (centres unmarked) [Example 89] |  | < 10 min | 30% | 35% | 30% | 
26 | CC1=C(C(=O)NC2CC2)C(c2ccccc2[N+](=O)[O-])C(C(=O)OC(C)C)=C(C)N1 (centres unmarked) [Example 90] |  | < 10 min | 15% | 10% | 5% | 
27 | CCCCOC(=O)C1=C(C)NC(C)=C(C(=O)NC2CC2)C1c1ccccc1[N+](=O)[O-] (centres unmarked) [Example 91] |  | < 10 min | 20% | 35% | 10% | 
28 | CC1=C(C(=O)NC2CC2)C(c2ccccc2[N+](=O)[O-])C(C(=O)OCC(C)C)=C(C)N1 (centres unmarked) [Example 92] |  | < 10 min | 10% | 10% | 5% | 
29 | CCCCCOC(=O)C1=C(C)NC(C)=C(C(=O)NC2CC2)C1c1ccccc1[N+](=O)[O-] (centres unmarked) [Example 93] |  | 20 min | 20% | 20% | 15% | 
30 | CC1=C(C(=O)NC2CC2)C(c2ccccc2[N+](=O)[O-])C(C(=O)OCCC(C)C)=C(C)N1 (centres unmarked) [Example 94] |  | < 10 min | 15% | 10% | 0% | 
31 | CCCCCCOC(=O)C1=C(C)NC(C)=C(C(=O)NC2CC2)C1c1ccccc1[N+](=O)[O-] (centres unmarked) [Example 95] |  | 10 to 15 min | 20% | 15% | 10% | 
32 | CC1=C(C(=O)NC2CC2)C(c2ccccc2[N+](=O)[O-])C(C(=O)OCCCC(C)C)=C(C)N1 (centres unmarked) [Example 96] |  | < 10 min | 20% | 10% | 0% | 
